Source: patent US6495525B1, “VLA-4 inhibitor: oMePUPA-V” (Biogen, Inc., priority 1998, dated 2002)

What was measured:
[1] = target: VLA-4 (Homo sapiens, UniProt P05556+P13612); experiment: VCAM-Ig Direct Binding Assay (DBA) on Jurkat cells; set-up: endogenous in cells; host or cells: Jurkat (human T cell line)
Description: A direct binding assay may also be employed to quantitate the inhibitory activity of the compounds of this invention. In this assay, a VCAM-IgG fusion protein containing the first two immunoglobulin domains of VCAM (D1D2) attached above the hinge region of an IgG1 molecule (“VCAM 2D-IgG”), is conjugated to a marker enzyme, such as alkaline phosphatase (“AP”). The synthesis of this VCAM-IgG fusion is described in PCT publication WO 90/13300, the disclosure of which is herein incorporated by reference. The conjugation of that fusion to a marker enzyme is achieved by cross-linking methods well-known in the art.
The VCAM-IgG enzyme conjugate is then placed in the wells of a multi-well filtration plate, such as that contained in the Millipore Multiscreen Assay System (Millipore Corp., Bedford, Ma.). Varying concentrations of the test inhibitory compound are then added to the wells followed by addition of VLA-4-expressing cells. […]
Following incubation, the wells are vacuum drained, leaving behind the cells and any bound VCAM. Quantitation of bound VCAM is determined by adding an appropriate colorimetric substrate for the enzyme conjugated to VCAM-IgG and determining the amount of reaction product. […]
VCAM-Ig was constructed and purified as published (Jakubowski, A. et al. Cell Adhesion and Communication 3:131-142, 1995). […] Binding to VLA-4 was assessed on the human T cell line, Jurkat (α4β1). […]

[2] = target: T1, α4β1 (Homo sapiens, UniProt P05556+P13612); experiment: LIBS induction on Jurkat cells with antibody 9EG7 (FACS); type: cell-based; conditions: 2 mM Mg+2 buffer, read-out: EC50 of LIBS epitope induction
T1 construct: endogenous in cells; host or cells: Jurkat (human T cell line)
T1 sequence (P13612 34-1032): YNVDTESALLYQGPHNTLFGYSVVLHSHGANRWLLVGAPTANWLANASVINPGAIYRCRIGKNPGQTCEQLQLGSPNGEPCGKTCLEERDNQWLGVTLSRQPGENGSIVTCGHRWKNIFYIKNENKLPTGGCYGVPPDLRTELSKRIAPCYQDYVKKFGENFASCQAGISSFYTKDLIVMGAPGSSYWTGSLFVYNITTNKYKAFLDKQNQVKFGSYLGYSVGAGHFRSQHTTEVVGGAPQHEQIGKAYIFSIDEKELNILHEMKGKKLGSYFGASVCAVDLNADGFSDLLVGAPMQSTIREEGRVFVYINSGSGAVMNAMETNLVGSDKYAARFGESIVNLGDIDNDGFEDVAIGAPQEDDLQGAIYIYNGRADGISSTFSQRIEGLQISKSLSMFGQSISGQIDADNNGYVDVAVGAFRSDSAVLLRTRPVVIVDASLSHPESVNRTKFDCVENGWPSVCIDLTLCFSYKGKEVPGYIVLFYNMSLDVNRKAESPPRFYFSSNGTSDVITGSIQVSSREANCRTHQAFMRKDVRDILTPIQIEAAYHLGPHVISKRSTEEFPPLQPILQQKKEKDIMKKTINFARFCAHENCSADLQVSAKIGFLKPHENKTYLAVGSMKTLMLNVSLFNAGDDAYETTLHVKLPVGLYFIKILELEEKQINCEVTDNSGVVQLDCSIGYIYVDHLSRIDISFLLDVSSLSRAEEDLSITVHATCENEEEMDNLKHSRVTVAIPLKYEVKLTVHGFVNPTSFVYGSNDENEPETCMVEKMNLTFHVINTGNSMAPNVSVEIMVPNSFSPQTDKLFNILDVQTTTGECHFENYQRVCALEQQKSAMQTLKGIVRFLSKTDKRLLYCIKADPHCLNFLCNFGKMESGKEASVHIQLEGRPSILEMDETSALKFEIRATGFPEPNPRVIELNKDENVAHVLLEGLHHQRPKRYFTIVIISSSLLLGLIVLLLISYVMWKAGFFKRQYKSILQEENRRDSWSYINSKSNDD
T1 sequence (P05556 21-798): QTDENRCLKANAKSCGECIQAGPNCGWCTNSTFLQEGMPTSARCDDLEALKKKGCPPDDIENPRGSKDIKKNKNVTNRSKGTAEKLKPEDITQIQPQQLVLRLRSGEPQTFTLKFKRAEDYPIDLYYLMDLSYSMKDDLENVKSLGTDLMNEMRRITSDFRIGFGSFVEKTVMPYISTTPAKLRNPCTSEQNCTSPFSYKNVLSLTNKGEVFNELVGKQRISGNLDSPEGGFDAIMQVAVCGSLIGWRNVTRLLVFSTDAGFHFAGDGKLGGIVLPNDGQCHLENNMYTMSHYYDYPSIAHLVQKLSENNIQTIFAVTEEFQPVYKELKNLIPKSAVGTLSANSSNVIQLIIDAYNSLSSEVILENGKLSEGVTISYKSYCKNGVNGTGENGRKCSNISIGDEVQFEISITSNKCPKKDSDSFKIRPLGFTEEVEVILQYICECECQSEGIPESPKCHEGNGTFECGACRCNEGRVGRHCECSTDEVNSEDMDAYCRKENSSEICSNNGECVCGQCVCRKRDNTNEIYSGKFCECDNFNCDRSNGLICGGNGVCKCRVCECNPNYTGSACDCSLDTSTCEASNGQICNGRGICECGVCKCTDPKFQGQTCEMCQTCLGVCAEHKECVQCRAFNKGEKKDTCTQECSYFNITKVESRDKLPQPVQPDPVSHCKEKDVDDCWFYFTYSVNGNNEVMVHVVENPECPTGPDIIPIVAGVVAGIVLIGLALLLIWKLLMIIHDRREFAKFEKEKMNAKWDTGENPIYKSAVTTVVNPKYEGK
Method: Jurkat cells (2×10^5/well) were preincubated at 37° C. for 20 minutes with TRIS-buffered saline containing 2 mM MgCl2 (Mg^+2-TBS) alone or with serial dilutions of test compounds. The samples were transferred to an ice bath and supplemented with LIBS antibody, 9EG7, at a final concentration of 10 μg/ml. The cells were washed twice with Mg^+2-TBS and resuspended in a 1:200 dilution of a FITC conjugated-goat anti-rat IgG in Mg^+2-TBS and incubated for 30 min at 4° C. The cells were washed twice and resuspended in Mg^+2-TBS. Mean fluorescence intensity (MFI) was determined by FACS analysis (Becton Dickinson FACScan). Results are expressed as MFI. Data were analyzed by Microsoft Excel v5.0 and Deltagraph v4.0 software.

VLA-4, sequence (P13612 34-1032): as the sequence (P13612 34-1032) above
VLA-4, sequence (P05556 21-798): as the sequence (P05556 21-798) above

For `Cc1ccccc1NC(=O)Nc1ccc(CC(=O)N2CCC[C@H]2C(=O)N[C@H](C)CC(=O)O)cc1` [oMePUPA-V], the IC50 ([1]; 1 mM MnCl2, read-out: IC50 ± SD, Jurkat cell VCAM-Ig Binding) was 8 ± 1 nM, the “specificity for VLA-4” value ([1]; versus α4β7, VLA-5 and gpIIbIIIa) was > 10,000 fold and the EC50 [2] was about 20 nM.
